This note sets out measurements from patent US20260324639A1, “MICROBIOCIDAL PYRAZOLE DERIVATIVES” (SYNGENTA CROP PROTECTION AG, priority 2022, published 2026).

The subject of one test is Monographella nivalis. The experiment in a line: Monographella nivalis (Microdochium nivale)/liquid culture (foot rot cereals). It counts as cell-based. The following applies: liquid culture, PDB, 24° C., growth inhibition photometric 4-5 days after application, read-out: control of Monographella nivalis compared to untreated control. As to the method:
(§1) Conidia of the fungus from cryogenic storage are directly mixed into nutrient broth (PDB potato dextrose broth). After placing a (DMSO) solution of test compound into a microtiter plate (96-well format), the nutrient broth containing the fungal spores is added. The test plates are incubated at 24° C. and the inhibition of growth is determined photometrically 4-5 days after application.

A further test concerns Mycosphaerella arachidis. Description: Mycosphaerella arachidis (Cercospora arachidicola)/liquid culture (early leaf spot). The format is cell-based. The settings on record: liquid culture, PDB, 24° C., growth inhibition photometric 4-5 days after application, read-out: control of Mycosphaerella arachidis compared to untreated control. As to the method:
as §1

In test [1] the test system is Mycosphaerella graminicola. Description: Mycosphaerella graminicola (Septoria tritici)/liquid culture (Septoria blotch). It counts as cell-based. The following applies: Zymoseptoria tritici, liquid culture, PDB, 24° C., growth inhibition photometric 4-5 days after application, read-out: control of Mycosphaerella graminicola compared to untreated control. As to the method: as §1

The next test relates to Pyrenophora teres. Description: Pyrenophora teres/barley/leaf disc preventative (net blotch). The format is in vivo. The settings on record: 200 ppm, barley leaf segments cv. Hasso, inoculated 2 days after application, assessed 5-7 days after application. As to the method:
Barley leaf segments cv. Hasso are placed on agar in a multiwell plate (24-well format) and sprayed with the formulated test compound diluted in water. The leaf segments are inoculated with a spore suspension of the fungus 2 days after application. The inoculated leaf segments are incubated at 20° C. and 65% rh under a light regime of 12 h light/12 h darkness in a climate cabinet and the activity of a compound is assessed as disease control compared to untreated when an appropriate level of disease damage appears in untreated check leaf segments (5-7 days after application).

In the next test the test system is Glomerella lagenarium. Description: Glomerella lagenarium (Colletotrichum lagenarium)/liquid culture (anthracnose). The format is cell-based. The following applies: Colletotrichum orbiculare, liquid culture, PDB, 24° C., growth inhibition photometric 3-4 days after application, read-out: control of Glomerella lagenarium compared to untreated control. As to the method: Conidia of the fungus from cryogenic storage are directly mixed into nutrient broth (PDB potato dextrose broth). After placing a (DMSO) solution of test compound into a microtiter plate (96-well format), the nutrient broth containing the fungal spores is added. The test plates are incubated at 24° C. and the inhibition of growth is measured photometrically 3-4 days after application.

The subject of the next test is Botryotinia fuckeliana. The experiment in a line: Botryotinia fuckeliana (Botrytis cinerea)/liquid culture (gray mould). The format is cell-based. The following applies: liquid culture, Vogels broth, 24° C., growth inhibition photometric 3-4 days after application, read-out: control of Botryotinia fuckeliana compared to untreated control. As for the experimental part: Conidia of the fungus from cryogenic storage are directly mixed into nutrient broth (Vogels broth). After placing a (DMSO) solution of test compound into a microtiter plate (96-well format), the nutrient broth containing the fungal spores is added. The test plates are incubated at 24° C. and the inhibition of growth is determined photometrically 3-4 days after application.

The test system of the next test is Alternaria solani. Description: Alternaria solani/tomato/leaf disc (early blight). It counts as in vivo. The following applies: 200 ppm; tomato leaf disks cv. Baby; inoculated 2 days after application; assessed 5-7 days after application. As for the experimental part:
Tomato leaf disks cv. Baby are placed on agar in multiwell plates (24-well format) and sprayed with the formulated test compound diluted in water. The leaf disks are inoculated with a spore suspension of the fungus 2 days after application. The inoculated leaf disks are incubated at 23° C./21° C. (day/night) and 80% rh under a light regime of 12/12 h (light/dark) in a climate cabinet and the activity of a compound is assessed as percent disease control compared to untreated when an appropriate level of disease damage appears on untreated check disk leaf disks (5-7 days after application).

For a further test, the system named is Phaeosphaeria nodorum. The experiment in a line: Phaeosphaeria nodorum (Septoria nodorum)/wheat/leaf disc preventative (glume blotch). It counts as in vivo. The following applies: 200 ppm, wheat leaf segments cv. Kanzler, inoculated 2 days after application, assessed 5-7 days after application. As to the method: Wheat leaf segments cv. Kanzler are placed on agar in a multiwell plate (24-well format) and sprayed with the formulated test compound diluted in water. The leaf disks are inoculated with a spore suspension of the fungus 2 days after application. The inoculated test leaf disks are incubated at 20° C. and 75% rh under a light regime of 12 h light/12 h darkness in a climate cabinet and the activity of a compound is assessed as percent disease control compared to untreated when an appropriate level of disease damage appears in untreated check leaf disks (5-7 days after application).

Regarding `COc1ccc2c(c1)C(c1cnn(C)c1)CN(C(=O)c1nnn(-c3ccc(F)cc3F)n1)C2C` (racemic) [Compound P-34, [2-(2,4-difluorophenyl)tetrazol-5-yl]-[6-methoxy-1-methyl-4-(1-methylpyrazol-4-yl)-3,4-dihydro-1H-isoquinolin-2-yl]methanone], the inhibition of growth at 20 ppm (in the test on Monographella nivalis; in the test on Mycosphaerella arachidis; in test [1]) was no less than 80% in each case.

Take `Cc1c([C@H]2CN(C(=O)c3cnn(-c4ccc(F)cc4F)n3)[C@@H](C)c3ccccc32)cnn1C` (racemic) [Compound P-40, [2-(2,4-difluorophenyl)triazol-4-yl]-[rac-(1S,4S)-4-(1,5-dimethylpyrazol-4-yl)-1-methyl-3,4-dihydro-1H-isoquinolin-2-yl]methanone]: the inhibition of growth at 20 ppm in test [1] was no less than 80%. For the same compound, the “control of Pyrenophora teres compared to untreated control” value in the test with Pyrenophora teres was “at least 80%”.

Consider `COc1ccc2c(c1)[C@H](c1cnn(C)c1)CN(C(=O)c1nnn(-c3ccccc3)n1)[C@@H]2C` (single isomer, unassigned) [Compound P-36], for which the inhibition of growth at 20 ppm (in the test with Monographella nivalis; with Mycosphaerella arachidis; in test [1]) was no less than 80% in each case.

As for `COc1ccc2c(c1)[C@@H](c1cnn(C)c1)CN(C(=O)c1nnn(-c3ccc(F)cc3F)n1)[C@H]2C` (single isomer, unassigned) [Compound P-38], the inhibition of growth at 20 ppm (in the test with Monographella nivalis; in the test on Mycosphaerella arachidis; in test [1]) was no less than 80% throughout.

In the case of `Cc1nn(C)c(C)c1C1CN(C(=O)c2cn(-c3ccccc3)nn2)Cc2ccccc21` (stereo not shown) [Compound P-7, (1-phenyltriazol-4-yl)-[4-(1,3,5-trimethylpyrazol-4-yl)-3,4-dihydro-1H-isoquinolin-2-yl]methanone], the inhibition of growth at 20 ppm (in the test on Mycosphaerella arachidis; in test [1]) was no less than 80% throughout.

On to `Cn1cc(C2CN(C(=O)c3cn(-c4ccc(F)cc4F)nn3)Cc3ccccc32)cn1` (stereo not shown) [Compound P-8, [1-(2,4-difluorophenyl)triazol-4-yl]-[4-(1-methylpyrazol-4-yl)-3,4-dihydro-1H-isoquinolin-2-yl]methanone], for which the “control of Pyrenophora teres compared to untreated control” value in the test with Pyrenophora teres is given as “at least 80%”.

On to `Cn1cc(C2CN(C(=O)c3cn(-c4ccccc4)nn3)Cc3ccccc32)cn1` (stereo not shown) [Compound P-11, [4-(1-methylpyrazol-4-yl)-3,4-dihydro-1H-isoquinolin-2-yl]-(1-phenyltriazol-4-yl)methanone], for which the inhibition of growth at 20 ppm (in test [1]; in the test with Glomerella lagenarium) was no less than 80% throughout.

Turning to `Cn1cc(C2CN(C(=O)c3nnn(-c4ccccc4)n3)Cc3ccccc32)cn1` (stereo not shown) [Compound P-14, [4-(1-methylpyrazol-4-yl)-3,4-dihydro-1H-isoquinolin-2-yl]-(2-phenyltetrazol-5-yl)methanone], the inhibition of growth at 20 ppm (in the test with Botryotinia fuckeliana; in the test with Monographella nivalis; in the test with Mycosphaerella arachidis; in test [1]; in the test with Glomerella lagenarium) was no less than 80% each time. Also, the “control of Pyrenophora teres compared to untreated control” value in the test on Pyrenophora teres was “at least 80%”. Further, the “control of Alternaria solani compared to untreated control” value with Alternaria solani was “at least 80%”. Further, the “control of Phaeosphaeria nodorum compared to untreated control” value with Phaeosphaeria nodorum is reported as “at least 80%”.

For `Cn1cc(C2CN(C(=O)c3cnn(-c4ccc(F)cc4)n3)Cc3ccccc32)cn1` (stereo not shown) [Compound P-18, [2-(4-fluorophenyl)triazol-4-yl]-[4-(1-methylpyrazol-4-yl)-3,4-dihydro-1H-isoquinolin-2-yl]methanone], the inhibition of growth at 20 ppm (with Monographella nivalis; in test [1]) was no less than 80% in each case.

On to `Cc1c(C2CN(C(=O)c3nnn(-c4ccc(F)cc4F)n3)Cc3ccccc32)cnn1C` (stereo not shown) [Compound P-31, [2-(2,4-difluorophenyl)tetrazol-5-yl]-[4-(1,5-dimethylpyrazol-4-yl)-3,4-dihydro-1H-isoquinolin-2-yl]methanone], for which the inhibition of growth at 20 ppm (in the test with Botryotinia fuckeliana; in the test on Monographella nivalis; in the test with Mycosphaerella arachidis; in test [1]; with Glomerella lagenarium) was no less than 80% each time. The “control of Pyrenophora teres compared to untreated control” value with Pyrenophora teres was “at least 80%”. Also, the “control of Alternaria solani compared to untreated control” value in the test with Alternaria solani is on record as “at least 80%”. The “control of Phaeosphaeria nodorum compared to untreated control” value in the test with Phaeosphaeria nodorum is on record as “at least 80%”.

`Cn1cc(C2(C)CN(C(=O)c3nnn(-c4ccc(F)cc4F)n3)Cc3ccccc32)cn1` (stereo not shown) [Compound P-32, [2-(2,4-difluorophenyl)tetrazol-5-yl]-[4-methyl-4-(1-methylpyrazol-4-yl)-1,3-dihydroisoquinolin-2-yl]methanone]: the inhibition of growth at 20 ppm in test [1] was no less than 80%.

On to `COc1ccc2c(c1)C(c1cnn(C)c1)CN(C(=O)c1nnn(-c3ccccc3)n1)C2C` (stereo not shown) [Compound P-35, [6-methoxy-1-methyl-4-(1-methylpyrazol-4-yl)-3,4-dihydro-1H-isoquinolin-2-yl]-(2-phenyltetrazol-5-yl)methanone], for which the inhibition of growth at 20 ppm (with Botryotinia fuckeliana; in the test with Monographella nivalis; with Mycosphaerella arachidis; in test [1]; with Glomerella lagenarium) was no less than 80% throughout. Besides, the “control of Pyrenophora teres compared to untreated control” value with Pyrenophora teres is “at least 80%”.

With `Cc1c([C@@H]2CN(C(=O)c3cn(-c4ncc(F)cc4F)nn3)[C@H](C)c3ccccc32)cnn1C` [Compound P-44, [1-(3,5-difluoro-2-pyridyl)triazol-4-yl]-[(1R,4R)-4-(1,5-dimethylpyrazol-4-yl)-1-methyl-3,4-dihydro-1H-isoquinolin-2-yl]methanone], the inhibition of growth at 20 ppm (with Mycosphaerella arachidis; in test [1]; in the test on Glomerella lagenarium) was no less than 80% throughout.

In the case of `C[C@H]1c2ccccc2[C@@H](c2cnn(C)c2Cl)CN1C(=O)c1cnn(-c2ccc(F)cc2F)n1` [Compound P-45, [(1S,4S)-4-(5-chloro-1-methyl-pyrazol-4-yl)-1-methyl-3,4-dihydro-1H-isoquinolin-2-yl]-[2-(2,4-difluorophenyl)triazol-4-yl]methanone], in test [1], the inhibition of growth at 20 ppm was no less than 80%.

Regarding `C[C@@H]1c2ccccc2[C@H](c2cnn(C)c2Cl)CN1C(=O)c1cn(-c2ccc(F)cc2F)nn1` [Compound P-47, [(1R,4R)-4-(5-chloro-1-methyl-pyrazol-4-yl)-1-methyl-3,4-dihydro-1H-isoquinolin-2-yl]-[1-(2,4-difluorophenyl)triazol-4-yl]methanone], the inhibition of growth at 20 ppm (in the test with Mycosphaerella arachidis; in test [1]) was no less than 80% throughout.

Regarding `C[C@@H]1c2ccccc2[C@H](c2cnn(C)c2Cl)CN1C(=O)c1nnn(-c2ccc(F)cc2F)n1` [Compound P-50, [(1R,4R)-4-(5-chloro-1-methyl-pyrazol-4-yl)-1-methyl-3,4-dihydro-1H-isoquinolin-2-yl]-[2-(2,4-difluorophenyl)tetrazol-5-yl]methanone], the inhibition of growth at 20 ppm in test [1] was no less than 80%.

In the case of `Cc1c(C2CN(C(=O)c3cn(-c4ncc(F)cc4F)nn3)Cc3ccccc32)cnn1C` (stereo not shown) [Compound P-57, [1-(3,5-difluoro-2-pyridyl)triazol-4-yl]-[4-(1,5-dimethylpyrazol-4-yl)-3,4-dihydro-1H-isoquinolin-2-yl]methanone], the inhibition of growth at 20 ppm in test [1] is no less than 80%. Further, the “control of Pyrenophora teres compared to untreated control” value in the test on Pyrenophora teres is “at least 80%”. The “control of Alternaria solani compared to untreated control” value in the test on Alternaria solani is reported as “at least 80%”. Besides, in the test with Phaeosphaeria nodorum, the “control of Phaeosphaeria nodorum compared to untreated control” value is on record as “at least 80%”.
